From US10538498B2, “1,3,4-oxadiazole sulfonamide derivative compounds as histone deacetylase 6 inhibitor, and the pharmaceutical composition comprising the same” (Chong Kun Dang Pharmaceutical Corp., priority 2015, dated 2020)

How the values were obtained:
human recombinant HDAC1 = target: T1, human recombinant HDAC1 (Homo sapiens, UniProt Q13547); assay: HDAC1 enzyme activity inhibition assay (HDAC Fluorimetric Drug Discovery Kit); assay type: biochemical; settings: 0.3 μg enzyme, 10 μM substrate, 30° C., 60 minutes
T1 construct: purchased Enzo Life Science BML-SE456
T1 sequence (Q13547 whole entry): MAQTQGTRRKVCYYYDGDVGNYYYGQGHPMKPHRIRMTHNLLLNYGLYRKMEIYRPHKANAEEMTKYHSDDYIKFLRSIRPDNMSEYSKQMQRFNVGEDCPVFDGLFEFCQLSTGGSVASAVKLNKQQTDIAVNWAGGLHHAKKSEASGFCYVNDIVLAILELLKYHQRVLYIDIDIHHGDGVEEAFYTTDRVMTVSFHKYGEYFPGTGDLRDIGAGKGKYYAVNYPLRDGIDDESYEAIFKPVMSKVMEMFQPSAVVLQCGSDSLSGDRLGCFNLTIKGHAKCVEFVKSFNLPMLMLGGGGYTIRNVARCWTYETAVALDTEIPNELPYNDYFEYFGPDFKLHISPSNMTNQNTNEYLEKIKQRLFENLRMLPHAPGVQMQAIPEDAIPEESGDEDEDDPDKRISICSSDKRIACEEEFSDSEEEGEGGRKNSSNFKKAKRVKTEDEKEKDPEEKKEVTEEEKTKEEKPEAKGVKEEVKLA
Description: In order to examine the HDAC6 selectivity of the compounds of formula I of the present invention by HDAC1 and HDAC6 enzymatic activity inhibition assays, an experiment was performed using a conventional substance as a control.
HDAC enzyme activity was measured using a HDAC Fluorimetric Drug Discovery Kit (BML-AK511, 516, Enzo Life Science). For the HDAC1 enzyme activity test, human recombinant HDAC1 (BML-SE456) was used as an enzyme source, and Fluor de Lys®-“SIRT1 (BNL-KI177) was used as a substrate. A 5-fold dilution of the compound was seeded into a 96-well plate, and then 0.3 μg of the enzyme and 10 μM of the substrate were added to each well of the plate and allowed to react at 30° C. for 60 minutes. Then, Fluor de Lys®-Developer II (BML-KI176) was added thereto and allowed to react for 30 minutes, after which the fluorescence value (Ex 360, Em 460) was measured using a multi-plate reader (Flexstation 3, Molecular Device). The HDAC6 enzyme was tested using human recombinant HDAC6 (382180) (Calbiochem) according to the same protocol as the HDAC1 enzyme activity test method. Based on the resulting values, each IC50 value was calculated using GraphPad Prism4.0 program.

human recombinant HDAC6 = target: T2, human recombinant HDAC6 (Homo sapiens, UniProt Q9UBN7); assay: HDAC6 enzyme activity inhibition assay (HDAC Fluorimetric Drug Discovery Kit); assay type: biochemical; settings: for HDAC6 selectivity (fold): HDAC1 vs HDAC6; for IC50: same protocol as the HDAC1 enzyme activity test
T2 construct: purchased Calbiochem 382180
T2 sequence (Q9UBN7 1-1215): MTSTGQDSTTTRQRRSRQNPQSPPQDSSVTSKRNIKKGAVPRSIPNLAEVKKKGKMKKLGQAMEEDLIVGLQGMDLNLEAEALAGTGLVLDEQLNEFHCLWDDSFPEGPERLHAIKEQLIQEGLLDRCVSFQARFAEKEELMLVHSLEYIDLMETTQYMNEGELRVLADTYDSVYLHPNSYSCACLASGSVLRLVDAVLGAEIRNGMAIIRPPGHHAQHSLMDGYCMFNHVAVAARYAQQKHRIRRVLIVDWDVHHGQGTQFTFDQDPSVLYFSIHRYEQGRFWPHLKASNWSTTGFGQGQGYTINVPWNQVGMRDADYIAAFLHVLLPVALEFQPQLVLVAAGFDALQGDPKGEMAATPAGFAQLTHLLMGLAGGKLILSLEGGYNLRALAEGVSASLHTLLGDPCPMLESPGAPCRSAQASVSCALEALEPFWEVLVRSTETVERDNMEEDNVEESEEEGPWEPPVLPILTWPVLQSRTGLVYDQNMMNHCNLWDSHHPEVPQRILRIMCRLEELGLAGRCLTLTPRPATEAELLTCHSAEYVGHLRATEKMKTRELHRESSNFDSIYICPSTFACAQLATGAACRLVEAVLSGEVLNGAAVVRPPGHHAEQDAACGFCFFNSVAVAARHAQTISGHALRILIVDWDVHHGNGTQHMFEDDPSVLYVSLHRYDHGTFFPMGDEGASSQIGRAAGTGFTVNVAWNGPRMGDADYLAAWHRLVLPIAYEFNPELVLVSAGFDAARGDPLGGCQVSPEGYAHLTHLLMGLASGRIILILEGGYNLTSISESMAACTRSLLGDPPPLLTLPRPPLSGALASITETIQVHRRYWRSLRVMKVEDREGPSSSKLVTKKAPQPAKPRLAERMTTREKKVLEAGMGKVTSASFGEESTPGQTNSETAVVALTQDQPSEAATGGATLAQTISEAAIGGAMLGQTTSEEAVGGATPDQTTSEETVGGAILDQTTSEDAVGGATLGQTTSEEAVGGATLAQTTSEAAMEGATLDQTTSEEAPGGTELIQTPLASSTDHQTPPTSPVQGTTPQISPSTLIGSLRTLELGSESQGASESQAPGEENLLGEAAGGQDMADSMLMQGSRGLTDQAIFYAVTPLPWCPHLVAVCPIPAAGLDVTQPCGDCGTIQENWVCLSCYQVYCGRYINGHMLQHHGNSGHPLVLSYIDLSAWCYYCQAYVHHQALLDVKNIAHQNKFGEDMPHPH
Procedure, shortened: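 IC50s derived from fluorescence (Ex 360, Em 460) read after a 30-min developer step. Beforehand, compounds in 5-fold dilution series reacted 60 min at 30° C with 0.3 μg human recombinant enzyme and 10 μM Fluor de Lys-SIRT1 substrate.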

| SMILES | IC50 (human recombinant HDAC1) [µM] | HDAC6 selectivity (fold) (human recombinant HDAC6) | IC50 (human recombinant HDAC6) [nM] |
| --- | --- | --- | --- |
| CS(=O)(=O)N(Cc1ccc(-c2nnc(C(F)(F)F)o2)cc1)c1cccnc1 [Compound 11088, N-(pyridin-3-yl)-N-(4-(5-(trifluoromethyl)-1,3,4-oxadiazol-2-yl)benzyl)methanesulfonamide] | 51.4 | 404 | 127 |
| CS(=O)(=O)N(Cc1ccc(-c2nnc(C(F)(F)F)o2)cc1F)c1cccnc1 [Compound 11089, N-(2-fluoro-4-(5-(trifluoromethyl)-1,3,4-oxadiazol-2-yl)benzyl)-N-(pyridin-3-yl)methanesulfonamide] | 47.9 | 957 | 50 |
| CS(=O)(=O)N(Cc1ccc(-c2nnc(C(F)(F)F)o2)nc1)c1ccccc1 [Compound 11173, N-phenyl-N-((6-(5-(trifluoromethyl)-1,3,4-oxadiazol-2-yl)pyridin-3-yl)methyl)methanesulfonamide] | 28.6 | 43 | 661 |
| Cc1cccc(N(Cc2ccc(-c3nnc(C(F)(F)F)o3)cc2F)S(C)(=O)=O)c1 [Compound 11177, N-(2-fluoro-4-(5-(trifluoromethyl)-1,3,4-oxadiazol-2-yl)benzyl)-N-(m-tolyl)methanesulfonamide] | 18.9 | 332 | 57 |
| Cc1cccc(N(Cc2ccc(-c3nnc(C(F)F)o3)cn2)S(=O)(=O)C2CCN(C3CN(C(=O)CO)C3)CC2)c1 [Compound 11839, N-((5-(5-(difluoromethyl)-1,3,4-oxadiazol-2-yl)pyridin-2-yl)methyl)-1-(1-(2-hydroxyacetyl)azetidin-3-yl)-N-(m-tolyl)piperidine-4-sulfonamide] | – | 2236 | 44.7 |
| O=S(=O)(C1CCN(C2CC(F)C2)CC1)N(Cc1ccc(-c2nnc(C(F)F)o2)cc1)c1cccc(Cl)c1 (centres unmarked) [Compound 11840, N-(3-chlorophenyl)-N-(4-(5-(difluoromethyl)-1,3,4-oxadiazol-2-yl)benzyl)-1-(3-fluorocyclobutyl)piperidine-4-sulfonamide] | – | 520 | 192 |
| O=S(=O)(CCN1CC=C(c2ccc(Cl)cc2)CC1)N(Cc1ccc(-c2nnc(C(F)F)o2)cc1)c1ccccc1 [Compound 11842, 2-(4-(4-chlorophenyl)-3,6-dihydropyridin-1(2H)-yl)-N-(4-(5-(difluoromethyl)-1,3,4-oxadiazol-2-yl)benzyl)-N-phenylethane-1-sulfonamide] | – | 121 | 826 |
| O=S(=O)(CCN1Cc2cccc3cccc(c23)C1)N(Cc1ccc(-c2nnc(C(F)F)o2)cc1)c1ccccc1 [Compound 11843, 2-(1H-benzo[de]isoquinolin-2(3H)-yl)-N-(4-(5-(difluoromethyl)-1,3,4-oxadiazol-2-yl)benzyl)-N-phenylethane-1-sulfonamide] | – | 101 | 994 |
| O=S(=O)(CCN1CCN(c2noc3ccccc23)CC1)N(Cc1ccc(-c2nnc(C(F)F)o2)cc1)c1ccccc1 [Compound 11844, 2-(4-(benzo[d]isoxazol-3-yl)piperazin-1-yl)-N-(4-(5-(difluoromethyl)-1,3,4-oxadiazol-2-yl)benzyl)-N-phenylethane-1-sulfonamide] | – | 172 | 581 |
| COc1ccccc1C1CCN(CCS(=O)(=O)N(Cc2ccc(-c3nnc(C(F)F)o3)cc2)c2ccccc2)CC1 [Compound 11845, N-(4-(5-(difluoromethyl)-1,3,4-oxadiazol-2-yl)benzyl)-2-(4-(2-methoxyphenyl)piperidin-1-yl)-N-phenylethane-1-sulfonamide] | – | 103 | 973 |
| NC(=O)[C@@H]1C[C@@H](O)CN1CCS(=O)(=O)N(Cc1ccc(-c2nnc(C(F)F)o2)cn1)c1ccccc1 [Compound 11849, (2S,4R)-1-(2-(N-((5-(5-(difluoromethyl)-1,3,4-oxadiazol-2-yl)pyridin-2-yl)methyl)-N-phenylsulfamoyl)ethyl)-4-hydroxypyrrolidine-2-carboxamide] | – | 1605 | 62.3 |

The next lines start with the values.

| IC50 (human recombinant HDAC1) [µM] | HDAC6 selectivity (fold) (human recombinant HDAC6) | IC50 (human recombinant HDAC6) [nM] | SMILES |
| --- | --- | --- | --- |
| 34.2 | 900 | 38 | CS(=O)(=O)N(Cc1ccc(-c2nnc(C(F)(F)F)o2)cc1)c1ccccc1 [Compound 11167, N-phenyl-N-(4-(5-(trifluoromethyl)-1,3,4-oxadiazol-2-yl)benzyl)methanesulfonamide] |
| 41.1 | 1081 | 38 | CS(=O)(=O)N(Cc1ccc(-c2nnc(C(F)(F)F)o2)cc1F)c1ccccc1 [Compound 11169, N-(2-fluoro-4-(5-(trifluoromethyl)-1,3,4-oxadiazol-2-yl)benzyl)-N-phenylmethanesulfonamide] |
| 26.6 | 1267 | 21 | CS(=O)(=O)N(Cc1ccc(-c2nnc(C(F)(F)F)o2)cn1)c1ccccc1 [Compound 11171, N-phenyl-N-((5-(5-(trifluoromethyl)-1,3,4-oxadiazol-2-yl)pyridin-2-yl)methyl)methanesulfonamide] |
| 7.81 | 211 | 37 | COc1cccc(N(Cc2ccc(-c3nnc(C(F)(F)F)o3)cc2F)S(C)(=O)=O)c1 [Compound 11179, N-(2-fluoro-4-(5-(trifluoromethyl)-1,3,4-oxadiazol-2-yl)benzyl)-N-(3-methoxyphenyl)methanesulfonamide] |
| 2.27 | 63 | 36 | CS(=O)(=O)N(Cc1ccc(-c2nnc(C(F)F)o2)c(F)c1)c1ccccc1 [Compound 11184, N-(4-(5-(difluoromethyl)-1,3,4-oxadiazol-2-yl)-3-fluorobenzyl)-N-phenylmethanesulfonamide] |
| – | 4167 | 24 | Cc1cccc(N(Cc2ccc(-c3nnc(C(F)F)o3)cn2)S(=O)(=O)C2CCN(C3CN(C(C)C)C3)CC2)c1 [Compound 11837, N-((5-(5-(difluoromethyl)-1,3,4-oxadiazol-2-yl)pyridin-2-yl)methyl)-1-(1-isopropylazetidin-3-yl)-N-(m-tolyl)piperidine-4-sulfonamide] |
| – | 2241 | 44.6 | CC(=O)N1CC(N2CCC(S(=O)(=O)N(Cc3ccc(-c4nnc(C(F)F)o4)cn3)c3cccc(C)c3)CC2)C1 [Compound 11838, 1-(1-acetylazetidin-3-yl)-N-((5-(5-(difluoromethyl)-1,3,4-oxadiazol-2-yl)pyridin-2-yl)methyl)-N-(m-tolyl)piperidine-4-sulfonamide] |
| – | 2790 | 35.8 | O=S(=O)(C1CCN(C2CC(F)C2)CC1)N(Cc1ccc(-c2nnc(C(F)F)o2)cn1)c1cccc(Cl)c1 (centres unmarked) [Compound 11841, N-(3-chlorophenyl)-N-((5-(5-(difluoromethyl)-1,3,4-oxadiazol-2-yl)pyridin-2-yl)methyl)-1-(3-fluorocyclobutyl)piperidine-4-sulfonamide] |
